Results published in US7754718B2 (priority 2004, dated 2010).

What was measured:
[1] = system: HepG2 cells; assay: Cell cytotoxicity assay on HepG2 cells, methylene blue staining; assay type: cell-based; conditions: Homo sapiens, 72 h, concentration that inhibited 50% of cell growth, 3 days
Procedure: Cytotoxicities of test compounds on MT-2 (Mellors et al., 1992 Mol. Pharmacol. 41:446-451) and CEM (Grove et al., 1995, Cancer Res. 55:3008-3011) cells were determined according to the previously reported procedures. Hepg2 cells were seeded at a density of 10^4 cells/ml/well in 24-well plates and cultured in MEME supplemented with 10% FBS at 37° C. and 5% CO2. Each test compound at different concentrations was added on the second day of the culture and the cells were incubated for another 3 days. At the end of the incubation period, the medium was removed and 0.5 ml of 0.5% methylene blue in 50% ethanol (v/v) was added to each well and set at room temperature for 30-60 minutes. The methylene blue was removed; the plates were washed with water and allowed to air dry. Once dry, 1% sarcosyl was added to dissolve the stained cell layer. The absorbance at 595 nm was measured with a microplate reader (Molecular Devices Corp. Sunnyvale, Calif.). The cytotoxicity to CEM cell was calculated as described previously (Grove et al., 1995, Cancer Res. 55 (14): 3008-3011).

[2] = system: L526M/M550V (adr) HBV; assay: Extracellular HBV DNA in lamivudine-resistant DM2 cells, real-time PCR; assay type: cell-based; conditions: Hepatitis B virus, 144 h, read-out: EC50 (μM) L526M/M550V (adr)
From the text: Hep.G2.2.15 is a hepatoblastoma cell line stably transfected with a HBV genome (ayw strain) (Sells et al., 1987, Proc Natl Acad Sci USA. 84 (4):1005-1009). W10, a HepG2 cell line, was transfected with an adr HBV strain (Fu et al., 2000, Antimicrob Agents Chemother 44 (12): 3402-3407; Fu et al., 1999, Biochem Pharmacol. 57 (12): 1351-1359). These cell lines were used to assess the antiviral activity of helioxanthin and 22. Various concentrations of the drugs in minimal essential medium with Earle's salts (MEME) containing 10% fetal bovine serum (FBS) were tested in 6-day-old cultures. The drugs were left in the culture medium for 3 days, then the medium was removed and fresh medium containing the same concentration of the drugs was added. At the end of another 3-day period, the culture medium and cells were harvested to measure the HBV replication level. The Lamivudine resistant cell line DM2 (Fu et al., 2000, Antimicrob Agents Chemother 44 (12): 3402-3407) is also a hepatoblastoma cell line stably transfected with HBV genome (adr strain) which contains the L526M/M550V double mutation. The culture conditions of DM2 are the same as that of HepG.2.2.15.
Quantitative real-time PCR was used to determine the extracellular HBV copy number in the medium of DM2 cells with and without drug treatment. […] Quantification of the copy number was determined by comparing the sample amount to a standard curve generated in each run. […]
W10 and DM2 cells (Fu et al., 2000, Antimicrob Agents Chemother 44 (12): 3402-3407), were used to evaluate the effects of these two compounds on wt HBV (adr strain) and its lamivudine-resistant HBV. […] After a 6-day treatment, the amount of HBV DNA, which was secreted into the medium, was evaluated using real-time PCR (FIG. 3). […] The real-time PCR method was validated by comparing the results of intracellular HBV DNA levels obtained from the Southern blot hybridization analysis to the results from real-time PCR that measured HBV DNA copies in the HepG2.2.15 medium with or without treatment of lamivudine. […]

[3] = system: HBV; assay: In vitro antiviral assay for HBV (Table 1); assay type: cell-based, Hepatitis B virus; conditions: Hepatitis B virus, read-out: Antiviral Activities (EC50, μM) HBV

Row | Compound | IC50 [1] [µM] | EC50 [2] [µM] | EC50 [3] [µM]
1 | Nc1ccn([C@@H]2CS[C@H](CO)O2)c(=O)n1 [Compound 3TC, (−)-(2R,5S)-1-[2-(hydroxymethyl)oxathiolan-5-yl]cytosine] | > 100 | > 3 | 0.02
2 | COc1ccc(-c2c3c(cc4ccc5c(c24)OCO5)C(=O)NC3)cc1OC [Compound 22, 10-(3,4-Dimethoxy-phenyl)-8,9-dihydro-1,3-dioxa-8-aza-dicyclopenta[a,g]naphthalen-7-one] | 2 | 0.0003 | 0.9
3 | O=C1OCc2c1cc1ccc3c(c1c2-c1ccc2c(c1)OCO2)OCO3 [Compound 2, 10-Benzo[1,3]dioxol-5-yl-9H-furo[3′,4′:6,7]naphtho[1,2-d][1,3]dioxol-7-one, reference compound] | 6 | 0.1 | 1
